Here are results for seven molecules from patent US20100317647A1 (priority 2009, published 2010).

Sequence of human Cat S (P25774 115-331): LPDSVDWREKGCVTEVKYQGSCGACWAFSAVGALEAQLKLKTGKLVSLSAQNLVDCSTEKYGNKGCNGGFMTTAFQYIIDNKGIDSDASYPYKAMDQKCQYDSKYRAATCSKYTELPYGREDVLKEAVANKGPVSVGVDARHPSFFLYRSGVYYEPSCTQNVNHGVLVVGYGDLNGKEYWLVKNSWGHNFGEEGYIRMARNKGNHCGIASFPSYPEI

The test has as its target human Cat S (Homo sapiens, UniProt P25774). Nature of the test: Cathepsin enzyme inhibition assay (fluorogenic peptide substrate cleavage). It is filed as biochemical. The note with it: human Cat S 1 nM; substrate Z-Val-Val-Arg-AMC 20 μM; pH 6.5; fluorescence over 20 minutes. In outline: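 Fluorogenic cleavage of Z-Val-Val-Arg-AMC (20 μM) by 1 nM enzyme in 100 mM potassium phosphate pH 6.5, 5 mM EDTA, 5 mM DTT, 0.001% Triton X-100. Reaction started with substrate; fluorescence (ex 360/em 465 nm) followed over 20 minutes. IC50 by standard methods.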
Broadly, the IC50 is the midpoint of a concentration-inhibition curve. Low readings indicate inhibition by little substance, high ones a need for much substance. `CCNC(=O)Cn1cc(-c2ccc(S(=O)(=O)[C@H]3C[C@@H](OC)[C@H](C(=O)NC4(C#N)CC4)C3)c(C(F)(F)F)c2)cn1` (racemic) [Example 223, (1R,2R,4R) and (1S,2S,4S)-4-[4-(1-Ethylcarbamoylmethyl-1H-pyrazol-4-yl)-2-trifluoromethyl-benzenesulfonyl]-2-methoxy-cyclopentanecarboxylic acid (1-cyano-cyclopropyl)-amide] came in with a concentration for half-maximal inhibition (IC50) of 0.31 nM. `N#CC1(NC(=O)[C@@H]2C[C@@H](S(=O)(=O)c3ccccc3Cl)C[C@H]2OCc2ccc(Cl)cc2)CC1` (racemic) [Example 222, (1R,2R,4R) and (1S,2S,4S)-4-(2-Chloro-benzenesulfonyl)-2-(4-chloro-benzyloxy)-cyclopentanecarboxylic acid (1-cyano-cyclopropyl)-amide] had a half-inhibitory concentration (IC50) of 5.8 nM. Molecule `CO[C@@H]1C[C@H](S(=O)(=O)c2ccc(-c3ccccn3)cc2C(F)(F)F)C[C@H]1C(=O)NC1(C#N)CC1` (racemic) [Example 41, (1R,2R,4R) and (1S,2S,4S)-2-Methoxy-4-(4-pyridin-2-yl-2-trifluoromethyl-benzenesulfonyl)-cyclopentanecarboxylic acid (1-cyano-cyclopropyl)-amide] yielded a half-maximal inhibitory concentration (IC50) of 0.1 nM. For `CS(=O)(=O)c1cc(Cl)ccc1CO[C@@H]1C[C@H](S(=O)(=O)c2ccccc2Cl)C[C@H]1C(=O)NC1(C#N)CC1` (racemic) [Example 248, (1R,2R,4R) and (1S,2S,4S)-4-(2-Chloro-benzenesulfonyl)-2-(4-chloro-2-methanesulfonyl-benzyloxy)-cyclopentanecarboxylic acid (1-cyano-cyclopropyl)-amide] the value was 3.5 nM; for `Cc1cc(-c2cccc(S(=O)(=O)[C@@H]3C[C@@H](C(=O)NC4(C#N)CC4)[C@H](C(=O)N4CCC(F)(F)C4)C3)c2)ccn1` [Example 203, (1R,2R,4R)-2-(3,3-Difluoro-pyrrolidine-1-carbonyl)-4-[3-(2-methyl-pyridin-4-yl)-benzenesulfonyl]-cyclopentanecarboxylic acid (1-cyano-cyclopropyl)-amide], 0.195 nM; for `CCCO[C@@H]1C[C@H](S(=O)(=O)c2ccccc2C(F)(F)F)C[C@H]1C(=O)NCC#N` (racemic) [Example 55, (1R,2R,4R) and (1S,2S,4S)-2-Propoxy-4-(2-trifluoromethyl-benzenesulfonyl)-cyclopentanecarboxylic acid cyanomethyl-amide], 2.1 nM. `Cn1cc(-c2cccc(S(=O)(=O)[C@@H]3C[C@@H](C(=O)NC4(C#N)CC4)[C@H](C(=O)N4CCC(F)(F)C4)C3)c2)cn1` [Example 202, (1R,2R,4R)-2-(3,3-Difluoro-pyrrolidine-1-carbonyl)-4-[3-(1-methyl-1H-pyrazol-4-yl)-benzenesulfonyl]-cyclopentanecarboxylic acid (1-cyano-cyclopropyl)-amide]: half-maximal inhibition (IC50) required 0.38 nM.
